Here are results for ten molecules from ChEMBL document CHEMBL1201862, “PubChem BioAssay data set” (2004).

The structures appear in SMILES notation.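 Test compounds were applied to cells in 96-well plates for 48 hours at 5 doses. GI50 is the concentration that inhibits growth by half.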 Activity calls are given as the source filed them. Cut-off read from the data, not from the text of the source: active = GI50 up to about 1.1 µM and inactive = higher.

Experiment in all cases: NCI-60 cell line screen, 48 h
The subject of experiment [1] is SF-539.
For experiment [2], the system named is OVCAR-8.
Experiment [3] concerns MCF7.
Experiment [4] has as its system CAKI-1.
For experiment [5], the system named is PC-3.
For experiment [6], the system named is RXF 393.
Experiment [7] deals with OVCAR-3.
Experiment [8] deals with SR.
Experiment [9] relates to K562.
Experiment [10] has as its system A498.
The test system of experiment [11] is SK-MEL-2.
For experiment [12], the system named is HOP-62.
In experiment [13] the test system is SF-268.
The subject of experiment [14] is NCI-H226.
Experiment [15] relates to HCC 2998.
The subject of experiment [16] is SF-295.
Experiment [17] deals with OVCAR-5.
Experiment [18] has as its system SN12C.
The subject of experiment [19] is MDA-N.
Experiment [20] deals with SK-OV-3.

Take `CC1(CO)OC(n2cnc3cncnc32)CC1O` (stereo not given): the GI50 in experiment [1], in [2], in [3], in experiment [4], in [5] and in experiment [6] was > 100 µM (inactive) each time. For the same molecule, the GI50 in experiment [7], in experiment [8], in experiment [9], in experiment [10], in experiment [11] and in experiment [12] was > 100 µM (inactive) throughout. The GI50 in experiment [13], in experiment [14], in experiment [15], in [16], in [17] and in [18] was > 100 µM (inactive) each time. Further, the GI50 in experiment [19] and in experiment [20] was > 100 µM (inactive) each time.
Turning to `COc1ccc(NC(C)=O)cc1N1C(=O)/C(=C\c2cc(OC)c(OC)c(OC)c2)S(=O)(=O)C1c1ccccc1` (stereo not given), the GI50 was > 100 µM (inactive) in [1]; 59.4 µM (inactive) in experiment [2]; 33 µM (inactive) in experiment [3]; > 100 µM (inactive) in experiment [4]; 39.3 µM (inactive) in [5]; 74.6 µM (inactive) in experiment [6]. For the same molecule, the GI50 in [7] is 60.3 µM (inactive); in experiment [8], 33 µM (inactive); in [9], 28.5 µM (inactive); in [10], > 100 µM (inactive); in experiment [11], > 100 µM (inactive); in [12], 78.2 µM (inactive). For the same molecule, the GI50 was 26.5 µM (inactive) in experiment [14]; > 100 µM (inactive) in experiment [15]; 55 µM (inactive) in experiment [16]; 23.5 µM (inactive) in experiment [17]; 50.8 µM (inactive) in [18]; 34.1 µM (inactive) in experiment [19]. Besides, the GI50 in [20] was > 100 µM (inactive).
Regarding `CC(C)n1c(=O)n(-c2ccccc2)n(C(C)(C)C)c1=O`, the GI50 in experiment [1], in [2], in experiment [3], in experiment [4], in [5] and in experiment [6] was > 100 µM (inactive) throughout. Also, the GI50 in experiment [7] was > 100 µM (inactive); in experiment [8] it was 58.5 µM (inactive); in experiment [9], > 100 µM (inactive); in experiment [10], > 100 µM (inactive); in [11], > 100 µM (inactive); in [12] it was > 100 µM (inactive). The GI50 in [14], in experiment [15], in experiment [16], in experiment [17], in [18] and in experiment [19] was > 100 µM (inactive) each time. Further, the GI50 in experiment [20] is > 100 µM (inactive).
`COC(=O)C1CCC(=O)N1C(c1ccc(OC)cc1)c1ccc2c(c1)OCO2` (stereo not given): the GI50 in experiment [1] is 32.9 µM (inactive); in experiment [2], 48.9 µM (inactive); in experiment [3], 36.7 µM (inactive); in experiment [4] it was 62.8 µM (inactive); in experiment [5], 45.3 µM (inactive); in experiment [7] it was 50.8 µM (inactive). The GI50 is 31 µM (inactive) in experiment [8]; 23.4 µM (inactive) in experiment [9]; 58.6 µM (inactive) in [10]; 43.7 µM (inactive) in experiment [11]; 53.2 µM (inactive) in [12]; 53.6 µM (inactive) in experiment [13]. For the same molecule, the GI50 in experiment [14] was 67.3 µM (inactive); in experiment [15], 28.7 µM (inactive); in [16] it was 17 µM (inactive); in experiment [17], 50 µM (inactive); in experiment [18], 57.9 µM (inactive); in experiment [19] it was 7.46 µM (inactive). Also, the GI50 in experiment [20] was 59.4 µM (inactive).
Take `COC(=O)C(CCCCNC(=O)CNC(=O)OCc1ccccc1)NC(=O)C(CCCCNC(=O)CNC(=O)OCc1ccccc1)NC(=O)OCc1ccccc1` (stereo not given): the GI50 in experiment [2] is 57.3 µM (inactive); in experiment [3], 0.0805 µM (active); in [4], > 100 µM (inactive); in experiment [5], 96.2 µM (inactive); in experiment [7], 53.3 µM (inactive); in experiment [8] it was 41.8 µM (inactive). For the same molecule, the GI50 in experiment [9] was > 100 µM (inactive); in experiment [10], > 100 µM (inactive); in experiment [11], 19 µM (inactive); in [12] it was > 100 µM (inactive); in experiment [13], 78 µM (inactive); in [14], > 100 µM (inactive). The GI50 in experiment [15] is 52.2 µM (inactive); in experiment [17], > 100 µM (inactive); in experiment [18] it was > 100 µM (inactive); in experiment [19] it was 51.6 µM (inactive).
For the molecule `COc1cc2cc(C(=O)N3C[C@@H](CCl)c4c3cc(N)c3ccccc43)[nH]c2c(OC)c1OC`, the GI50 in experiment [1] was 0.00213 µM (active); in experiment [2], 0.00451 µM (active); in experiment [3], 0.00145 µM (active); in [4], 0.004 µM (active); in experiment [5], 0.00102 µM (active); in experiment [6] it was 0.00157 µM (active). Also, the GI50 in experiment [7] was 0.00385 µM (active); in experiment [8], 0.000455 µM (active); in experiment [9], 0.00327 µM (active); in experiment [10], 0.00863 µM (active); in experiment [11] it was < 0.01 µM (active); in experiment [12] it was 0.00755 µM (active). Besides, the GI50 in experiment [13] is 0.119 µM (active); in experiment [15], < 0.01 µM (active); in [16], < 0.01 µM (active); in experiment [17] it was < 0.01 µM (active); in experiment [18], 0.00914 µM (active); in [19], 0.000296 µM (active). Moreover, the GI50 in experiment [20] is 0.00457 µM (active).
Consider `CC(=O)Nc1cc2c3c(c1)CCCN3CCC2`, for which the GI50 in experiment [1], in experiment [2], in experiment [3], in [4], in [5] and in experiment [6] was > 100 µM (inactive) throughout. The GI50 in [7], in experiment [8], in [9], in experiment [10], in experiment [11] and in experiment [14] was > 100 µM (inactive) throughout. The GI50 in [15], in experiment [16], in experiment [17], in [19] and in [20] was > 100 µM (inactive) throughout.
Consider `O=C1OCc2c1cc1cc3c(cc1c2-c1ccc2c(c1)OCO2)OCO3.O=C1OCc2cc3cc4c(cc3c(-c3ccc5c(c3)OCO5)c21)OCO4`, for which the GI50 in [2] was 13.5 µM (inactive); in experiment [3], 15.4 µM (inactive); in [4] it was 11.8 µM (inactive); in [5] it was 8.38 µM (inactive); in [6] it was 5.73 µM (inactive); in experiment [7], 4 µM (inactive). The GI50 in experiment [8] is 5.7 µM (inactive); in experiment [9] it was 0.979 µM (active); in experiment [10] it was 24.7 µM (inactive); in experiment [11], 11.4 µM (inactive); in experiment [12], 6.31 µM (inactive); in [14], 9.77 µM (inactive). Moreover, the GI50 is 18.7 µM (inactive) in experiment [15]; 2.41 µM (inactive) in experiment [16]; 21 µM (inactive) in [17]; 15 µM (inactive) in experiment [18]; 1.41 µM (inactive) in experiment [19]; 17.8 µM (inactive) in experiment [20].
On to `CCc1cc(Cc2cc(CC)c(NC(=O)C(=O)CC(=O)c3sc(-c4cccnc4)nc3C)c(CC)c2)cc(CC)c1NC(=O)C(=O)CC(=O)c1sc(-c2cccnc2)nc1C`, for which the GI50 in experiment [1] was > 100 µM (inactive); in experiment [2], > 100 µM (inactive); in experiment [3], > 100 µM (inactive); in experiment [4], > 10 µM (inactive); in experiment [5], > 100 µM (inactive); in [6], > 100 µM (inactive). Besides, the GI50 was > 100 µM (inactive) in experiment [7]; > 10 µM (inactive) in experiment [8]; > 100 µM (inactive) in [9]; > 100 µM (inactive) in experiment [10]; > 100 µM (inactive) in experiment [11]; > 100 µM (inactive) in [13]. For the same molecule, the GI50 in experiment [14] is > 100 µM (inactive); in [15] it was > 100 µM (inactive); in experiment [16], 54.3 µM (inactive); in experiment [17], > 100 µM (inactive); in experiment [18], > 100 µM (inactive); in experiment [19], > 100 µM (inactive). Further, the GI50 in experiment [20] is > 100 µM (inactive).
Turning to `COc1ccc2c(c1)c(=Cc1ccc(N(C)C)cc1)c1cc(-c3ccccc3)[n+](C)n12`, the GI50 is 0.154 µM (active) in [2]; 0.327 µM (active) in [3]; 1.49 µM (inactive) in experiment [4]; 0.322 µM (active) in experiment [5]; 0.41 µM (active) in [6]; 0.23 µM (active) in [7]. In addition, the GI50 in experiment [8] was 0.337 µM (active); in experiment [9] it was 0.214 µM (active); in [10], 1.33 µM (inactive); in [11], 0.452 µM (active); in experiment [12] it was 1.36 µM (inactive); in [13], 0.226 µM (active). The GI50 in [14] is 0.15 µM (active); in experiment [15], 0.324 µM (active); in experiment [16], 0.264 µM (active); in experiment [17], 0.875 µM (active); in experiment [18] it was 0.345 µM (active); in [19], 0.378 µM (active). In addition, the GI50 in experiment [20] is 0.447 µM (active).
